Residues, ends and D or L forms follow the SMILES beside them.
Key:
ACE = ACE (Homo sapiens, UniProt P12821); assay: Assay of ACE inhibitory activity (HHL hydrolysis, HPLC of hippuric acid); assay type: biochemical; conditions: in vitro; substrate HHL, borate buffer, 37 °C, 5 min coincubation with HHL, 30 min reaction, HCl stop; 7 concentrations; HPLC C18 at 228 nm; GraphPad Prism 7.0
Protocol: IC50 refers to the semi-inhibitory concentration; here, the principle of in vitro IC50 determination of the potential ACE inhibitory peptide is that ACE can hydrolyse HHL into […] and dipeptide. HHL and tetrapeptide are competitive, and when ACE binds to the tetrapeptide, it will reduce the production of the product […]; the IC50 activity of the tetrapeptide is when it is reduced by half of the original concentration. The water bath temperature was controlled at 37 °C, and the initial mass concentration of each tetrapeptide was […]. The tetrapeptide was diluted with borate buffer solution into 7 concentration gradients, and coincubated with HHL buffer for 5 min. Then, the ACE solution was added to initiate the reaction, and the reaction was terminated by the addition of HCl after 30 min of system reaction. Afterwards, the reaction was analysed on a C18 column, with HPLC detection at 228 nm and an injection volume of 10 μL. The mobile phases were water and acetonitrile at 75% and 25%, respectively, with a flow rate of 1 mL/min, and isocratic elution for 7 min (acetonitrile and water containing 0.1% trifluoroacetic acid). ACE inhibition was calculated as ACE inhibition = ((b − c) − (a − c))/(b − c) × 100% (a: peak area of hippuric acid in the experimental group; b: peak area of hippuric acid in the blank group; c: peak area of hippuric acid in the control group), and the inhibition rate was converted into IC50 values by the software graphpad prism 7.0.

[1] = biological target: Angiotensin-converting enzyme (ACE) (UniProt P12821)
Angiotensin-converting enzyme (ACE), sequence (P12821 30-1306): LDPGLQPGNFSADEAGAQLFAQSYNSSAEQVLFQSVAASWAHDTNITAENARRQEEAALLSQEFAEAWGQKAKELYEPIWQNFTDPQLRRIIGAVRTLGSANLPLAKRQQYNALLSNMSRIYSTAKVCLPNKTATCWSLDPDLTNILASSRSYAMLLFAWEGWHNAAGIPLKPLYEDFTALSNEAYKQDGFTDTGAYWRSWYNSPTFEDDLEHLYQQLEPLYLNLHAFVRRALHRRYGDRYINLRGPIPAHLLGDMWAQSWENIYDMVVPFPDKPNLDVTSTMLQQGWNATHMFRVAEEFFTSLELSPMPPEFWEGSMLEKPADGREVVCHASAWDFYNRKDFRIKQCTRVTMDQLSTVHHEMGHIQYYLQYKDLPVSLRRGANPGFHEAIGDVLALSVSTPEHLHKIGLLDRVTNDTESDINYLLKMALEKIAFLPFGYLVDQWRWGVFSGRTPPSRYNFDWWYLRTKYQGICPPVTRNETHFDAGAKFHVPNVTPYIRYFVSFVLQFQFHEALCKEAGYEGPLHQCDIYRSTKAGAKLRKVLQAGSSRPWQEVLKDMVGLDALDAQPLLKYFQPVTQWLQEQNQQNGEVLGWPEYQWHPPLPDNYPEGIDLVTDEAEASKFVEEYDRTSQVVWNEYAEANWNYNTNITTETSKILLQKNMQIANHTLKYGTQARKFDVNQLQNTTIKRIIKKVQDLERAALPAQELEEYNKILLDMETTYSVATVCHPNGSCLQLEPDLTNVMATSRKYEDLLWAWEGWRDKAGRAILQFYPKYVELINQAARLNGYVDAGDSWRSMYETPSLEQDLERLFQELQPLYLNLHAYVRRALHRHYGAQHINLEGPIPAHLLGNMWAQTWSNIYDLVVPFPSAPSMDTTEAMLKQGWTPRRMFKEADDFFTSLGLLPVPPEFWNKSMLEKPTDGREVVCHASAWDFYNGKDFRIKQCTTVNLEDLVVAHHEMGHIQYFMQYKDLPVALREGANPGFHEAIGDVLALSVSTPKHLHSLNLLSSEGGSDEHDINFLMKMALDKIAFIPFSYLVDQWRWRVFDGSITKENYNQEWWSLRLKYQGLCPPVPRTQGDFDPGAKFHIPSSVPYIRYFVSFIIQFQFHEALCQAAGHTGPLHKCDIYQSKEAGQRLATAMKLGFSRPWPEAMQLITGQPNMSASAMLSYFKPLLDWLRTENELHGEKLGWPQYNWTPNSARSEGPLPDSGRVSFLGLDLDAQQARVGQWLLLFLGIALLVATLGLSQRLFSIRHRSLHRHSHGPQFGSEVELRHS

ACE, sequence (P12821 30-1306, species assumed): as the sequence (P12821 30-1306) above

Molecule	IC50 (ACE) [µM]	IC50 of inhibition of ACE activity (hydrolysis of HHL to hippuric acid, HPLC at 228 nm, 37 °C) [1] [µM]
CC(C)[C@H](NC(=O)[C@H](CCCNC(=N)N)NC(=O)[C@H](Cc1ccccc1)NC(=O)[C@@H](N)Cc1c[nH]c2ccccc12)C(=O)O [WFRV] (H-WFRV-OH)	31.8 ± 0.83	–
N[C@@H](CO)C(=O)NCC(=O)NCC(=O)NCC(=O)O [SGGG] (H-SGGG-OH)	> 5000	–
N[C@@H](Cc1c[nH]c2ccccc12)C(=O)N[C@@H](Cc1ccccc1)C(=O)N[C@@H](CO)C(=O)N[C@@H](Cc1c[nH]c2ccccc12)C(=O)O [WFSW] (H-WFSW-OH)	148 ± 14.3	–
NCC(=O)NCC(=O)N[C@@H](CO)C(=O)NCC(=O)O [GGSG] (H-GGSG-OH)	> 5000	–
N=C(N)NCCC[C@H](NC(=O)[C@@H](N)Cc1c[nH]c2ccccc12)C(=O)N[C@@H](Cc1ccccc1)C(=O)N[C@@H](Cc1ccccc1)C(=O)O [WRFF] (H-WRFF-OH)	141 ± 3.9	–
NCCCC[C@H](NC(=O)[C@H](Cc1c[nH]c2ccccc12)NC(=O)[C@H](Cc1ccc(O)cc1)NC(=O)[C@@H](N)Cc1ccc(O)cc1)C(=O)O [YYWK] (H-YYWK-OH)	20 ± 8.19	–
N=C(N)NCCC[C@H](NC(=O)[C@@H](N)CCCNC(=N)N)C(=O)N[C@@H](Cc1ccc(O)cc1)C(=O)N[C@@H](CCC(N)=O)C(=O)O [RRYQ] (H-RRYQ-OH)	115 ± 6.15	–
N=C(N)NCCC[C@H](N)C(=O)N[C@@H](Cc1c[nH]c2ccccc12)C(=O)N[C@@H](Cc1c[nH]c2ccccc12)C(=O)N[C@@H](CC(=O)O)C(=O)O [RWWD] (H-RWWD-OH)	129 ± 8.32	–
N=C(N)NCCC[C@H](NC(=O)[C@@H](N)Cc1c[nH]c2ccccc12)C(=O)N[C@@H](CCC(N)=O)C(=O)N[C@@H](Cc1ccccc1)C(=O)O [WRQF] (H-WRQF-OH)	29.6 ± 6.75	–

More lines, now with the values ahead:

IC50 (ACE) [µM]	IC50 of inhibition of ACE activity (hydrolysis of HHL to hippuric acid, HPLC at 228 nm, 37 °C) [1] [µM]	Molecule
36.8 ± 1.32	–	N[C@@H](Cc1c[nH]c2ccccc12)C(=O)N[C@@H](Cc1c[nH]c2ccccc12)C(=O)N[C@@H](CC(=O)O)C(=O)N[C@@H](Cc1c[nH]c2ccccc12)C(=O)O [WWDW] (H-WWDW-OH)
–	31.8	tetrapeptide WFRV
28.5 ± 0.99	–	C[C@@H](O)[C@H](NC(=O)[C@H](Cc1c[nH]c2ccccc12)NC(=O)[C@@H](N)Cc1c[nH]c2ccccc12)C(=O)N[C@@H](Cc1ccc(O)cc1)C(=O)O [WWTY] (H-WWTY-OH)
–	115	tetrapeptide RRYQ
26.4 ± 3.81	–	NC(=O)C[C@H](NC(=O)[C@H](Cc1c[nH]c2ccccc12)NC(=O)[C@@H](N)Cc1c[nH]c2ccccc12)C(=O)N[C@@H](Cc1c[nH]c2ccccc12)C(=O)O [WWNW] (H-WWNW-OH)
–	129	RWWD [tetrapeptide RWWD]
–	28.5	WWTY [tetrapeptide WWTY]
–	148	WFSW [tetrapeptide WFSW]
–	20	YYWK [tetrapeptide YYWK]
–	36.8	WWDW [tetrapeptide WWDW]
–	29.6	WRQF [tetrapeptide WRQF]
–	26.4	WWNW [tetrapeptide WWNW]
–	141	WRFF [tetrapeptide WRFF]
